This note sets out measurements from patent US12280072B2, “Oligosaccharide compound for inhibiting intrinsic coagulation factor X-enzyme complex, and preparation method therefor and uses thereof” (Jiuzhitang Co., Ltd., priority 2017, dated 2025).

Bounds are passed on as bounds.

Common to all, as to type: biochemical
Test [1] has as its target T1, FIIa (Homo sapiens).
T1 construct: antithrombin (i.e., active coagulation factor IIa); purchased
In words: AT-dependent IIa inhibitory activity assay. The settings on record: in presence of AT; read-out: Drug concentration required to inhibit 50% of coagulation factor activity (IC50, ng/mL) Ha (AT). As for the experimental part:
AT-dependent IIa inhibitory activity assay: Heparin Anti-FIIa kit was used for detection. To a 96-well plate, 30 μL of sample, control solution or Tris-HCl buffer (negative control) was added, and then 30 μL of 1 IU/mL AT solution was added, mixed well by shaking the plate and incubated at 37° C. for 2 min; 30 μL of 24 IU/mL FIIa solution was added, mixed well by shaking the plate and incubated for 2 min at 37° C., and then 30 μL of pre-warmed 1.25 mM FIIa specific chromogenic substrate CS-01 (38) was added, mixed well by shaking the plate. The OD405 was detected by a microplate reader and the IC50 value of FIIa inhibition of each sample was calculated.
(§1) Data processing: The average value of OD405 detected by the duplicated well was used as the detection value of the test sample and the reference of each concentration, and the slope of the linear fit between the detected value to the time value (the change rate of the absorbance value OD405/min) indicated enzymatic activity of coagulation factor. Taking the clotting factor activity of the negative control well as 100%, coagulation factor activity (percentage) in the presence of the test sample was calculated. The coagulation factor activity in the presence of the test sample was plotted against the concentration of the test sample, and fitted according to the following formula, to calculate the IC50 value: B=(IC50)^n/{(IC50)^n+[I]^n}
(§2) in the formula, B is the coagulation factor activity (percentage) in the presence of the test sample, [I] is the concentration of the test sample, IC50 is the half inhibitory concentration (concentration of the test sample required to inhibit 50% of the activity), and n is the Hill coefficient. • (4) Effect on surface activation and platelet activity: […]

The test system of test [2] is human-controlled plasma. Nature of the test: Anticoagulant activity assay: APTT clotting time. As for the experimental part:
(§3) 8.2 Methods • (1) Preparation of sample solution: Oligosaccharide compounds A1˜A8, B1˜B11 and oligosaccharide mixtures C1, D1, D2 were all dissolved in Tris-HCl buffer and diluted to the desired series of solubility. • (2) Anticoagulant activity assay: 90 μL of human-controlled plasma was added to the sample or 10 μL of the control solution, and then the clotting time (APTT and PT) was detected by the MC-4000 coagulometer according to the method described in the APTT and PT kit instructions. • (3) Coagulation factor inhibitory activity analysis: […]

For test [3], the system named is plasma. In words: TT (thrombin time) clotting time.
In test [4] the target is T2, FXa (Homo sapiens).
T2 construct: 8 μg/mL FXa solution; purchased
T2 sequence (P01008 33-464): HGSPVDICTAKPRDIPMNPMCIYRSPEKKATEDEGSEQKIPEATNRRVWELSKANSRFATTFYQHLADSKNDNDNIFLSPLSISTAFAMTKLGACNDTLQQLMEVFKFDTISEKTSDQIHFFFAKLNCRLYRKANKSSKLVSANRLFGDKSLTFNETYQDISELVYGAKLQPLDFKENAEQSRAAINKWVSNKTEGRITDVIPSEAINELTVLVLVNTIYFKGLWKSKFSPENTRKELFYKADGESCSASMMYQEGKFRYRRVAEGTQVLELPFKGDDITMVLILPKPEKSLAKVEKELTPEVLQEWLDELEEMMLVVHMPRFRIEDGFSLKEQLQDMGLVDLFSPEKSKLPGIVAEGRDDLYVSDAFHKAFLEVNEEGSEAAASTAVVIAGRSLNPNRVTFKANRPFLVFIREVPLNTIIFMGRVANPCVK
In words: AT-dependent Xa inhibitory activity assay. The settings on record: in presence of AT; read-out: Drug concentration required to inhibit 50% of coagulation factor activity (IC50, ng/mL) Xa (AT). As for the experimental part: AT-dependent Xa inhibitory activity assay: Heparin […] kit was used for detection. To a 96-well plate, 30 μL of sample, control solution or Tris-HCl buffer (negative control) was added, then 30 μL of 1 IU/mL AT solution was added, mixed well and incubated at 37° C. for 1 min; and than 30 μL of 8 μg/mL FXa solution was added, mixed well and incubated at 37° C. for 1 min, then 30 μL of pre-warmed 1.25 mM Xa chromogenic substrate SXa-11 was added. OD405 was detected by a microplate reader.
as §1, §2

Test [5] deals with T3, intrinsic factor Xase (Homo sapiens, UniProt P00740).
T3 construct: 60 nM FIXa; purchased
T3 sequence (P00740 47-191 limits assumed): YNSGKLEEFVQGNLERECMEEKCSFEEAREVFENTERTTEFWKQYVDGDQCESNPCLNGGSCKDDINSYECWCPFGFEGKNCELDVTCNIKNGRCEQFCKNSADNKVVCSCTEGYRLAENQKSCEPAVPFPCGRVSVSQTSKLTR
T3 sequence (P00740 227-461 limits assumed): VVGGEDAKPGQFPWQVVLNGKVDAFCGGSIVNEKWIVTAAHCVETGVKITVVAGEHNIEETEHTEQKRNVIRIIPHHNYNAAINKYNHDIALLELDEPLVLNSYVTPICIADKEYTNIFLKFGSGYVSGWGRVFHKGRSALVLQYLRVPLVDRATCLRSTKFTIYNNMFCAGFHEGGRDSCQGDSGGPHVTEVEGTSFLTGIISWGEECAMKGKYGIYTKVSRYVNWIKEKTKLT
In words: Xase inhibitory activity assay. The settings on record: read-out: Drug concentration required to inhibit 50% of coagulation factor activity (IC50, ng/mL) Xase (converted). As for the experimental part:
Xase inhibitory activity assay: Detection was performed according to kit instructions and literature methods by combining the Factor VIII and […]. Specifically, to each well of a 96-well plate, 30 μL of test solution, control solution, or Tris-HCl buffer (negative control) was added, and 30 μl of FVIII (2 IU/ml), 30 μl of R2 (60 nM FIXa, containing FIIa, PC/PS, Ca^2+) were sequentially added, mixed by shaking the plate, incubated at 37° C. for 2 min; and then 30 μL of R1 (50 nM FX, containing direct thrombin inhibitor) was added, mixed by shaking the plate, incubated at 37° C. for 1 min; and then 30 μL of R3 (FXa chromogenic substrate SXa-11, about 8.4 mM) was added. The absorbance at 405 nm (OD405) was detected with a microplate reader, continuously measuring for 7.5 min at a interval of 30 s. The Xase activity and IC50 value of Xase inhibition of the test sample were calculated based on the OD405 change value.
as §1, §2

The test system of test [6] is human-controlled plasma. In words: Anticoagulant activity assay: PT clotting time. As for the experimental part:
as §3

T1 sequence (P01008 33-464): as the sequence (P01008 33-464) above

For `CC(=O)NC(CO)C(OC1OC(C(=O)O)C(OC2OC(COS(=O)(=O)O)C(OS(=O)(=O)O)C(OC3OC(C(=O)O)C(OC4OC(COS(=O)(=O)O)C(OS(=O)(=O)O)C(OC5OC(C(=O)O)C(OC6OC(COS(=O)(=O)O)C(OS(=O)(=O)O)C(OC7OC(C(=O)O)=CC(OC8OC(C)C(OS(=O)(=O)O)C(O)C8OS(=O)(=O)O)C7O)C6NC(C)=O)C(OC6OC(C)C(OS(=O)(=O)O)C(O)C6OS(=O)(=O)O)C5O)C4NC(C)=O)C(OC4OC(C)C(OS(=O)(=O)O)C(O)C4OS(=O)(=O)O)C3O)C2NC(C)=O)C(OC2OC(C)C(OS(=O)(=O)O)C(O)C2OS(=O)(=O)O)C1O)C(OS(=O)(=O)O)C(O)COS(=O)(=O)O` [Compound A3, L-Fuc2S4S-(α1,3)-ΔUA-(α1,3)-{D-GaNAc4S6S-(β1,4)-[L-Fuc2S4S-(α1,3)]-D-GlcA-(β1,3)}n+1-D-GalNAc4S6S-ol], the IC50 in test [1] is > 1480 nM; in test [4], > 1480 nM; in test [5], 11.8 nM. Moreover, the “Drug concentration required for multiplication of coagulation time (μg/mL) APTT” value (shortened to “Drug concentration required … (μg/mL) APTT”) in test [2] was 6.8 µg/mL. Besides, the “Drug concentration required for multiplication of coagulation time (μg/mL) TT” value (“Drug concentration required … (μg/mL) TT” below) in test [3] is reported as “# (>128 μg/mL)”. In addition, the “Drug concentration required for multiplication of coagulation time (μg/mL) PT” value (“Drug concentration required … (μg/mL) PT” below) in test [6] was “# (>128 μg/mL)”.
On to `CC(=O)NC(CO)C(OC1OC(C(=O)O)C(OC2OC(COS(=O)(=O)O)C(OS(=O)(=O)O)C(OC3OC(C(=O)O)C(OC4OC(COS(=O)(=O)O)C(OS(=O)(=O)O)C(OC5OC(C(=O)O)C(OC6OC(COS(=O)(=O)O)C(OS(=O)(=O)O)C(OC7OC(C(=O)O)C(OC8OC(COS(=O)(=O)O)C(OS(=O)(=O)O)C(OC9OC(C(=O)O)=CC(OC%10OC(C)C(OS(=O)(=O)O)C(O)C%10OS(=O)(=O)O)C9O)C8NC(C)=O)C(OC8OC(C)C(OS(=O)(=O)O)C(O)C8OS(=O)(=O)O)C7O)C6NC(C)=O)C(OC6OC(C)C(OS(=O)(=O)O)C(O)C6OS(=O)(=O)O)C5O)C4NC(C)=O)C(OC4OC(C)C(OS(=O)(=O)O)C(O)C4OS(=O)(=O)O)C3O)C2NC(C)=O)C(OC2OC(C)C(OS(=O)(=O)O)C(O)C2OS(=O)(=O)O)C1O)C(OS(=O)(=O)O)C(O)COS(=O)(=O)O` [Compound A4, L-Fuc2S4S-(α1,3)-ΔUA-(α1,3)-{D-GaNAc4S6S-(β1,4)-[L-Fuc2S4S-(α1,3)]-D-GlcA-(β1,3)}n+1-D-GalNAc4S6S-ol], for which the IC50 was > 1180 nM in test [1], > 1180 nM in test [4] and 6.67 nM in test [5]. In test [2], the “Drug concentration required … (μg/mL) APTT” value turned out to be 5.3 µg/mL. For the same compound, in test [3], the “Drug concentration required … (μg/mL) TT” value was “# (>128 μg/mL)”. In addition, the “Drug concentration required … (μg/mL) PT” value in test [6] is reported as “# (>128 μg/mL)”.
As for `CC(=O)NC(CO)C(OC1OC(C(=O)O)C(OC2OC(COS(=O)(=O)O)C(OS(=O)(=O)O)C(OC3OC(C(=O)O)C(OC4OC(COS(=O)(=O)O)C(OS(=O)(=O)O)C(OC5OC(C(=O)O)C(OC6OC(COS(=O)(=O)O)C(OS(=O)(=O)O)C(OC7OC(C(=O)O)C(OC8OC(COS(=O)(=O)O)C(OS(=O)(=O)O)C(OC9OC(C(=O)O)C(OC%10OC(COS(=O)(=O)O)C(OS(=O)(=O)O)C(OC%11OC(C(=O)O)=CC(OC%12OC(C)C(OS(=O)(=O)O)C(O)C%12OS(=O)(=O)O)C%11O)C%10NC(C)=O)C(OC%10OC(C)C(OS(=O)(=O)O)C(O)C%10OS(=O)(=O)O)C9O)C8NC(C)=O)C(OC8OC(C)C(OS(=O)(=O)O)C(O)C8OS(=O)(=O)O)C7O)C6NC(C)=O)C(OC6OC(C)C(OS(=O)(=O)O)C(O)C6OS(=O)(=O)O)C5O)C4NC(C)=O)C(OC4OC(C)C(OS(=O)(=O)O)C(O)C4OS(=O)(=O)O)C3O)C2NC(C)=O)C(OC2OC(C)C(OS(=O)(=O)O)C(O)C2OS(=O)(=O)O)C1O)C(OS(=O)(=O)O)C(O)COS(=O)(=O)O` [Compound A5, L-Fuc2S4S-(α1,3)-ΔUA-(α1,3)-{D-GaNAc4S6S-(β1,4)-[L-Fuc2S4S-(α1,3)]-D-GlcA-(β1,3)}n+1-D-GalNAc4S6S-ol], the IC50 is > 985 nM in test [1], > 985 nM in test [4] and 4.65 nM in test [5]. For the same compound, the “Drug concentration required … (μg/mL) APTT” value in test [2] was 3.9 µg/mL. Moreover, in test [3], the “Drug concentration required … (μg/mL) TT” value is on record as “# (>128 μg/mL)”. Also, in test [6], the “Drug concentration required … (μg/mL) PT” value was “# (>128 μg/mL)”.
In the case of `COC(=O)C1=CC(OC2OC(C)C(OS(=O)(=O)O)C(O)C2OS(=O)(=O)O)C(O)C(OC2C(NC(C)=O)C(OC3C(C(=O)OC)OC(OC4C(NC(C)=O)C(OC5C(C(=O)OC)OC(OC(C(CO)NC(C)=O)C(OS(=O)(=O)O)C(O)COS(=O)(=O)O)C(O)C5OC5OC(C)C(OS(=O)(=O)O)C(O)C5OS(=O)(=O)O)OC(COS(=O)(=O)O)C4OS(=O)(=O)O)C(O)C3OC3OC(C)C(OS(=O)(=O)O)C(O)C3OS(=O)(=O)O)OC(COS(=O)(=O)O)C2OS(=O)(=O)O)O1` [Compound A6, L-Fuc2S4S-(α1,3)-[6-Methyl-ΔUA-(α1,3)]-{D-GaNAc4S6S-(β1,4)-[L-Fuc2S4S-(α1,3)-]-D-6-Methyl-GlcA-(β1,4)}2-D-GalNAc4S6S-ol], the values for the IC50 in test [1], in test [4] and in test [5] were > 1940 nM, > 1940 nM and 26.5 nM, respectively. The “Drug concentration required … (μg/mL) APTT” value in test [2] worked out at 7.5 µg/mL. Besides, the “Drug concentration required … (μg/mL) TT” value in test [3] is listed as “# (>128 μg/mL)”. Further, the “Drug concentration required … (μg/mL) PT” value in test [6] is on record as “# (>128 μg/mL)”.
For the compound `CC1OC(OC2C=C(C(=O)O)OC(OC3C(NS(=O)(=O)O)C(OC4C(C(=O)O)OC(OC5C(NS(=O)(=O)O)C(OC6C(C(=O)O)OC(OC(C(CO)NS(=O)(=O)O)C(OS(=O)(=O)O)C(O)COS(=O)(=O)O)C(O)C6OC6OC(C)C(OS(=O)(=O)O)C(O)C6OS(=O)(=O)O)OC(COS(=O)(=O)O)C5OS(=O)(=O)O)C(O)C4OC4OC(C)C(OS(=O)(=O)O)C(O)C4OS(=O)(=O)O)OC(COS(=O)(=O)O)C3OS(=O)(=O)O)C2O)C(OS(=O)(=O)O)C(O)C1OS(=O)(=O)O` [Compound A7, L-Fuc2S4S-(α1,3)-L-ΔUA-(α1,3)-{D-GalNS4S6S-(β1,4)-[L-Fuc2S4S-(α1,3)-]-D-GlcA-(β1,3)}2-D-Gal-NS4S6S-ol], the figures for the IC50 in test [1], in test [4] and in test [5] were > 1880 nM, > 1880 nM and 22.2 nM, respectively. In addition, the “Drug concentration required … (μg/mL) APTT” value in test [2] was 6.9 µg/mL. Further, the “Drug concentration required … (μg/mL) TT” value in test [3] was “# (>128 μg/mL)”. The “Drug concentration required … (μg/mL) PT” value in test [6] is reported as “# (>128 μg/mL)”.
As for `COCC(NC(C)=O)C(OC1OC(C(=O)OC)C(OC2OC(COS(=O)(=O)O)C(OS(=O)(=O)O)C(OC3OC(C(=O)OC)C(OC4OC(COS(=O)(=O)O)C(OS(=O)(=O)O)C(OC5OC(C(=O)OC)=CC(OC6OC(C)C(OS(=O)(=O)O)C(O)C6OS(=O)(=O)O)C5O)C4NC(C)=O)C(OC4OC(C)C(OS(=O)(=O)O)C(O)C4OS(=O)(=O)O)C3O)C2NC(C)=O)C(OC2OC(C)C(OS(=O)(=O)O)C(O)C2OS(=O)(=O)O)C1O)C(OS(=O)(=O)O)C(O)COS(=O)(=O)O` [Compound A8, L-Fuc2S4S-(α1,3)-[6-Methyl-ΔUA-(α1,3)]-{D-GaNAc4S6S-(β1,4)-[L-Fuc2S4S-(α1,3)-]-D-6-Methyl-GlcA-(β1,3)}2-D-1-Methyl-Gal-NAc4S6S-ol], the IC50 was > 1930 nM in test [1], > 1930 nM in test [4] and 27.2 nM in test [5]. Moreover, in test [2], the “Drug concentration required … (μg/mL) APTT” value is 8.2 µg/mL. In addition, the “Drug concentration required … (μg/mL) TT” value in test [3] is on record as “# (>128 μg/mL)”. Further, in test [6], the “Drug concentration required … (μg/mL) PT” value was “# (>128 μg/mL)”.
